{"source": "patent US6083964A", "about": "“Optical resolution of racemic aminoalkylpyridine anticonvulsants and (+) aminoalkylpyridine enantiomers as highly potent orally effective anticonvulsant drugs and excitatory amino acid antagonists” (K and K Biosciences, Inc., priority 1999, dated 2000)", "key": {"[1]": {"test_system": "hippocampal kindled rats", "assay": "Hippocampal kindled rat model, i.p.", "format": "in vivo", "design": "key to Seizure Score ± S.E.M.: Racine seizure class scale; class 5 = rearing and falling", "excerpt": "\"Kindling\" refers to the process whereby repeated administration of an initially subconvulsive electrical stimulus results in progressive intensification of epileptic discharge culminating in a generalized seizure. Kindling can be induced by electrical stimulation of many sites in the brain, especially in \"limbic\" areas, which include amygdala, hippocampus, and entorhinal cortex [Racine, R., Neurosurgery, 3, 234-252 (1978)]. Kindling is reliably produced by a one second train of 60 Hz square wave stimuli of one millisecond duration at current levels which initially produce only a slight afterdischarge (AD), but no behavioral response. Repeated stimulation, typically once daily, results in a progressive increase in AD amplitude, duration and complexity with subsequent spread to other brain areas culminating in a fully generalized motor seizure. [Racine, R. J. and Zaide, J., In \"Mechanisms, the Continuing Evolution of the Limbic System Concept\" (K. E. Livingston and O. Hornykiewicz, eds.), Plenum Press, pp. 457-493, 1978.\nThe development of kindling in the rat has been characterized by five (1 to 5) behavioral and electrographic \"classes\". The behavior in classes 1 (facial clonus) and 2 (head nodding) mimics that found in human complex partial seizures; the behavior in other classes would be consistent with limbic seizures evolving to generalized motor seizures. An animal is considered to be fully kindled once the enhanced sensitivity has developed, as evidenced by a class 5 seizure (rearing and falling).\nThe (+) AAP enantiomer, compound 1 in Table 1, was tested in the hippocampal kindled rat, by the i.p. route. […]\nThe (-) AAP enantiomer, compound 2 in Table 1, was also tested in the hippocampal kindled rat, by the i.p. route."}, "[2]": {"test_system": "pentylenetetrazol (Metrazole) seizure threshold in mice", "assay": "Timed intravenous Metrazol (PTZ) seizure threshold test in mice, i.p.", "format": "in vivo, mouse", "conditions": "mice", "excerpt": "A compound that is active in the MES test and prevents seizure spread, can lower seizure threshold at the same time. Such a compound would have proconvulsant activity while at the same time prevent generalized tonic seizures. […] The timed intravenous pentylenetetrazol (Metrazol) seizure threshold test in mice identifies those MES compounds with proconvulsant potential.\nMice were given the (+) and (-) enantiomers, compounds 1 and 2 in Table 1, intraperitoneally at the ED50 and TD50. At the time of maximal MES activity, an intravenous infusion of 0.5% heparinized solution of pentylenetetrazol (PT2) (0.34 ml/min) was started. The time to the appearance of the first myoclonic jerk (twitch) and the subsequent sustained clonic seizure (clonus) were the measured endpoints. Results were obtained for groups of ten treated and ten saline control mice and converted to the dose in mg/kg of PTZ necessary to produce the two endpoints.\nExperiments were performed using three doses of 0, 36 and 149 mg/kg on each of 10 animals per dosage group. The time to \"twitch\" and the time to \"clonus\", the two components of the seizure elicited by the infusion of metrazol, were observed."}, "[3]": {"test_system": "maximal electroshock seizure (MES) in mice", "assay": "Maximal electroshock seizure (MES) test, mice, i.p.", "format": "in vivo, mouse (male Carworth Farms #1)", "conditions": "listed as (1) (-) Enantiomer"}}}
{"smiles": "CC(Nc1ccc(Cl)cc1)c1ccncc1", "note": "(single isomer, unassigned; (-)) [Compound 2, (-) N-(4-Chlorophenyl)-1-(4-pyridyl)ethylamine]", "values": [{"measurement": "Afterdischarge Duration (sec) ± S.E.M.", "setting": "[1]; 100 mg/kg i.p., 15 min", "result": "69.88 ± 8.29", "unit": "s"}, {"measurement": "Seizure Score ± S.E.M.", "setting": "[1]; 100 mg/kg i.p., 15 min, Table 3 value * significantly different from control", "result": "4.63 ± 0.38"}, {"measurement": "Afterdischarge Duration (sec) ± S.E.M.", "setting": "[1]; 100 mg/kg i.p., 45 min", "result": "74.88 ± 10.31", "unit": "s"}, {"measurement": "Seizure Score ± S.E.M.", "setting": "[1]; 100 mg/kg i.p., 45 min, Table 3 value * significantly different from control", "result": "4.25 ± 0.49"}, {"measurement": "Afterdischarge Duration (sec) ± S.E.M.", "setting": "[1]; 100 mg/kg i.p., 75 min", "result": "82.50 ± 6.11", "unit": "s"}, {"measurement": "Seizure Score ± S.E.M.", "setting": "[1]; 100 mg/kg i.p., 75 min, Table 3 value * significantly different from control", "result": "4.75 ± 0.16"}, {"measurement": "Afterdischarge Duration (sec) ± S.E.M.", "setting": "[1]; 100 mg/kg i.p., 105 min", "result": "75.75 ± 11.71", "unit": "s"}, {"measurement": "Seizure Score ± S.E.M.", "setting": "[1]; 100 mg/kg i.p., 105 min, Table 3 value * significantly different from control", "result": "4.50 ± 0.50"}, {"measurement": "Afterdischarge Duration (sec) ± S.E.M.", "setting": "[1]; 100 mg/kg i.p., 135 min", "result": "82.63 ± 5.04", "unit": "s"}, {"measurement": "Seizure Score ± S.E.M.", "setting": "[1]; 100 mg/kg i.p., 135 min", "result": "4.75 ± 0.16"}, {"measurement": "Afterdischarge Duration (sec) ± S.E.M.", "setting": "[1]; 100 mg/kg i.p., 165 min", "result": "79.00 ± 12.92", "unit": "s"}, {"measurement": "Seizure Score ± S.E.M.", "setting": "[1]; 100 mg/kg i.p., 165 min", "result": "4.13 ± 0.61"}, {"measurement": "# Protected/# Tested", "setting": "[1]; 100 mg/kg i.p., 195 min", "result": "2/8"}, {"measurement": "Afterdischarge Duration (sec) ± S.E.M.", "setting": "[1]; 100 mg/kg i.p., 195 min", "result": "69.25 ± 11.15", "unit": "s"}, {"measurement": "Seizure Score ± S.E.M.", "setting": "[1]; 100 mg/kg i.p., 195 min", "result": "3.88 ± 0.67"}, {"measurement": "Afterdischarge Duration (sec) ± S.E.M.", "setting": "[1]; 100 mg/kg i.p., 225 min", "result": "83.75 ± 5.17", "unit": "s"}, {"measurement": "Seizure Score ± S.E.M.", "setting": "[1]; 100 mg/kg i.p., 225 min", "result": "4.25 ± 0.16"}, {"measurement": "Afterdischarge Duration (sec) ± S.E.M.", "setting": "[1]; 100 mg/kg i.p., 255 min", "result": "73.13 ± 11.97", "unit": "s"}, {"measurement": "Seizure Score ± S.E.M.", "setting": "[1]; 100 mg/kg i.p., 255 min", "result": "4.00 ± 0.50"}, {"measurement": "Afterdischarge Duration (sec) ± S.E.M.", "setting": "[1]; 100 mg/kg i.p., 285 min", "result": "84.50 ± 6.76", "unit": "s"}, {"measurement": "Seizure Score ± S.E.M.", "setting": "[1]; 100 mg/kg i.p., 285 min", "result": "4.83 ± 0.17"}, {"measurement": "activity in hippocampal kindled rat (in words)", "setting": "[1]; i.p.", "result": "only moderate activity"}, {"measurement": "amount of PTZ required to produce the twitch and clonus and time to twitch and time to clonus (in words)", "setting": "[2]", "result": "only in modest amounts"}, {"measurement": "ED50", "setting": "[3]; MES test", "result": 60.3, "unit": "mg/kg"}, {"measurement": "P.I. (protective index, TD50/ED50)", "setting": "[3]; MES", "result": 3.6}]}
